Assay results reported in patent US5998596A, “Inhibition of protein kinase activity by aptameric action of oligonucleotides” (The United States of America as represented by the …).

Experiments:
p210^bcr-abl kinase = assay: Immunoprecipitation kinase assay of p210bcr-abl (autophosphorylation), ODN added to kinase reaction; type: biochemical, human; settings: for inhibition of p210^bcr-abl kinase activity in vitro (in words): ODN at 1 μM added to the immunoprecipitated enzyme
Description: (§1) The p210^bcr-abl kinase, src kinase and cdc-2 kinase were immunoprecipitated from K562 cells. The p145^abl kinase was immunoprecipitated from PC3M cells, PDGF receptor kinase from 3T3 cells, and EGF receptor kinase from A431 cells. MAP kinase was utilized as a pure protein and lck kinase was immunoprecipitated from peripheral blood lymphocytes of a normal volunteer.
(§2) Cells were washed in phosphate buffered saline (PBS) and 0.5-5×10^6 cells were solubilized in 1 ml of the specified cell lysis buffers. Unless otherwise stated, all cell lysis buffers contained the following protease inhibitors: 20 μg/ml leupeptin, 1 μg/ml aprotinin, and 1 mM phenylmethylsulfonylfluroide. For p210^bcr-abl and […] immunoprecipitation, cells were lysed with ABL lysis buffer (25 mM imidazole, pH 7.2, 0.5% NP40, 50 mM NaCl, 1 mM Na3 VO4) and lysates were clarified at 14,000 g. 4° C. for 30 minutes. Cell lysis for all other proteins was performed according to the references describing the various immunoprecipitation kinase assays.
(§3) Immunoprecipitation kinase assays of p210^bcr-abl p145^abl were performed as described, with modifications (15). Briefly, for p210^bcr-abl, 1 μg of anti-bcr antibody (clone 7C6, Oncogene Science, Uniondale, N.Y.) was added to lysates prepared from 0.5-1×10^6 K562 cells. For p145^abl, 1 μg of anti-c-abl antibody (clone 24-21), which binds to the C-terminal domain of p145^abl, was added to lysates prepared from 5×10^6 PC3M cells. After incubating 1 hour at 4° C., complexes were precipitated by incubating with protein A-Sepharose coated with rabbit anti-mouse immunoglobulin (Cappel Research Products, Durham, N.C.) for 30 minutes. The complexes were then washed as follows: ABL lysis buffer×2, PBS×1, and ABL assay buffer×1 (24 mM imidazole, pH 7.2, 1 mg/ml bovine serum albumin, and 10 mM MnCl). For p145^abl assays ABL assay buffer contained 20 mM MnCl. To access the activity of p210^bcr-abl on substrate phosphorylation, acid inactivated enolase (Sigma Chemical Co., St. Louis, Mo.) was added as described (15).
ODNs were added to kinase reaction buffers not more than 5 minutes prior to the addition of ATP. Reactions were initiated by the addition of [γ^-32 P] ATP (3000 Ci/mmole; Amersham Corp., Arlington Heights, Ill.) and quenched by the addition of 5× gel loading buffer and heating to 95° C. Kinase reactions were run for 1-10 minutes at room temperature, except for EGFR, p145^abl, and MAP kinase, which were run at 30° C. The products were then electrophoresed on SDS-polyacrylamide gels: 7% for p210^bcr-abl, EGFR, and PDGFR, 8% for p145^abl, 10% for src, lck, and cdc-2 kinase, and 12% for MAP kinase. Gels were dried and reaction products were visualized by direct autoradiography at -70° C. with Kodak X-OMAT AR film. To determine the inhibitory concentration 50, i.e., the concentration required to inhibit enzyme activity by 50% (IC50) and Ki values, gel slices containing the band of interest were excised and analyzed by Cerenkov counting.

p145^abl kinase [1] = assay: Immunoprecipitation kinase assay of p145abl; type: biochemical
Description: as §1, §2
Immunoprecipitation kinase assays of p210^bcr-abl p145^abl were performed as described, with modifications (15). Briefly, for p210^bcr-abl, 1 μg of anti-bcr antibody (clone 7C6, Oncogene Science, Uniondale, N.Y.) was added to lysates prepared from 0.5-1×10^6 K562 cells. […]

K562 cells = assay: K562 colony formation in soft agar; type: cell-based, human; settings: 50 μM ODN, two weeks, not electroporated
Description: K562, NIH 3T3, and A431 cells were purchased from the American Type Culture Collection (Rockville, Md.). PC3M prostate cancer cells were a generous gift from J. Trepel (National Institutes of Health, Bethesda, Md.). K562 and PC3M cells were cultured in RPMI 1640 with 10% heat-inactivated fetal bovine serum (FBS; GIBCO BRL, Grand Island, N.Y.) while NIH 3T3 and A431 cells were cultured in Dulbecco's modified Eagle's medium (Biofluids, Rockville, Md.) with 10% heat inactivated FBS. Cells were maintained at 37° C., 6% carbon dioxide with biweekly media changes. For soft agar cloning, cells were suspended in 0.3% low melting temperature agarose (SeaPlaque FMC BioProducts, Rockland, Me.) in RPMI 1640 with 10% total calf serum and maintained as above.
To evaluate the effects of these various ODNs of K562 cell growth, both growth in liquid culture and growth in soft agar were examined. […] Cells were electroporated in the presence of 50 μM ODN and kept in liquid culture. For soft agar cloning experiments, cells were not electroporated, but were grown in the presence of 50 μM ODN for two weeks. Liquid cultures were replenished with fresh medium containing 50 μM ODN. Two weeks following incubation in liquid culture, the number of trypan blue-excluding cells was determined. No effect on cell growth in liquid culture could be observed with any ODN tested (data not shown).

src kinase = assay: Immunoprecipitation kinase assay of c-src with enolase as substrate; type: biochemical, human
Description: as §1
Epidermal growth factor receptor (EGFR) was immunoprecipitated with 10 ,g anti-EGFR antibody (clone LA1) and human recombinant epidermal growth factor (both from Upstate Biotechnology Inc., Lake Placid, N.Y.). The assay was performed as described (17) but without removing the EGFR from the protein A-antibody solid support. Instead, epidermal growth factor, at a final concentration of 100 nM, was added to the kinase reaction mixture. Platelet derived growth factor receptor (DGFR) was immunoprecipitated with anti-human type A/type B PDGFR antibody (Upstate Biotechnology Inc.) and immune complex kinase assays performed as referenced (18) except that protein A-Sepharose coated with rabbit anti-mouse immunoglobulin was used instead of formalin-fixed Staphylococcus aureus to bind PDGFR-antibody conjugates. C-src was immunoprecipitated with anti-v-src antibody (Ab-1; Oncogene Science) and assayed as previously described (19) with the addition of enolase as exogenous substrate. […]

p145^abl kinase [2] = assay: Phosphorylation of exogenous substrate enolase by p145abl; type: biochemical; settings: ODN1 concentrations of up to 50 μM
Description: as §3
ODNs were added to kinase reaction buffers not more than 5 minutes prior to the addition of ATP. Reactions were initiated by the addition of [γ^-32 P] ATP (3000 Ci/mmole; Amersham Corp., Arlington Heights, Ill.) and quenched by the addition of 5× gel loading buffer and heating to 95° C. […]

[3] = Cerenkov counting of excised gel slices, mean ± SD

Question: What does the source list for “5'-GTCCACCATGGCGCGGCCGGC-3' [ODN1] (phosphorothioate caps, further chemistry not given here) [21mer ODN complementary to nucleotides -12 to +9 of the p210bcr-abl mRNA, phosphorothioate capped unless otherwise specified]”?
Answer: p210^bcr-abl autophosphorylation in the presence of enolase (p210^bcr-abl kinase; 1 μM BCR-AS, lower concentrations of enolase, three minute reaction): only a slight effect; nature of the enzymatic inhibition with respect to ATP (p210^bcr-abl kinase; 1 μM ODN1): purely noncompetitive; IC50 (p210^bcr-abl kinase; [3]): 520 ± 120 nM; Percent Remaining Activity of p210^bcr-abl kinase relative to control (p210^bcr-abl kinase; ODN 1 μM, phosphorothioate capped, mean ± SE of three experiments): 36 ± 1.2%; inhibition of p210^bcr-abl kinase activity in vitro (in words) (p210^bcr-abl kinase): markedly inhibited; inhibition of p210^bcr-abl kinase activity in vitro (in words) (p210^bcr-abl kinase; listed as ODN1 phosphorothioate capped): intermediate potencies; Ki (p210^bcr-abl kinase; various [γ-32P]ATP concentrations, presence or absence of 1 μM ODN1, double-reciprocal plot): 520 ± 120 nM; sensitivity of p145^abl compared with p210^bcr-abl (p145^abl kinase [1]): equally sensitive; IC50 (p145^abl kinase [1]; [3]): 620 ± 240 nM; ability to form colonies in soft agar (K562 cells): inhibited the ability of these cells to form colonies in soft agar; IC50 (src kinase; Cerenkov counting of excised gel slices): > 100000 nM; inhibition of src (in words) (src kinase; ODN1 concentrations greater than 2 logs above the Ki for p210^bcr-abl): not significantly inhibited; inhibition of enolase phosphorylation by p145^abl (p145^abl kinase [2]): no significant inhibition
